Here are results for 23 compounds from US11033516B1, “Combination therapies with disulfiram” (Spring Discovery, Inc., priority 2020, dated 2021).

For series [1], the system named is T-type calcium channels (T-channels). The settings on record: native T-currents; cited from earlier work.
Series [2] deals with tyrosinase. The settings on record: read-out: IC50, reversible inhibitor of tyrosinase; cited from earlier work.
Series [3] deals with Spodoptera litura larvae. The settings on record: cited from earlier work.
The test system of series [4] is most gram-positive and some gram-negative bacteria. The settings on record: cited from earlier work.
For series [5], the system named is SAMP8 mice. The settings on record: intragastric, 4-month-old SAMP8 mice, 2 months; cited from earlier work.
Series [6] has as its target CYP2B6 (Homo sapiens, UniProt P20813). The settings on record: cited from earlier work.
For series [7], the target named is CYP2C8 (Homo sapiens, UniProt P10632). The settings on record: cited from earlier work.
Sequence of CYP2C8 (P10632 whole entry): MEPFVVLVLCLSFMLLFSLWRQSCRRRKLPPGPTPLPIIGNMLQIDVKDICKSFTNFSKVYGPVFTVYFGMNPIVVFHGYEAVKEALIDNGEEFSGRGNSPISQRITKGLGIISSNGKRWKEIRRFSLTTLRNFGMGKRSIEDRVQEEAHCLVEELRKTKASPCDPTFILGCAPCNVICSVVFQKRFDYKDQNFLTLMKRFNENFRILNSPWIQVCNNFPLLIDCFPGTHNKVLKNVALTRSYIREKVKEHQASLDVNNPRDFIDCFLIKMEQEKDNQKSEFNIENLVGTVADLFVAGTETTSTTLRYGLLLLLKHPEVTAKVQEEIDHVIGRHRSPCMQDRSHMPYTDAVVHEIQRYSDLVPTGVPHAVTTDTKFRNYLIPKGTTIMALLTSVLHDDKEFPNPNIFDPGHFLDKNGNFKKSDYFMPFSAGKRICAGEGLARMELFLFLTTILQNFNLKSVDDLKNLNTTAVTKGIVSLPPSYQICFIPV
In series [8] the target is CYP3A4 (Homo sapiens, UniProt P08684). The following applies: cited from earlier work.
In series [9] the target is CYP2C19 (Homo sapiens, UniProt P33261). The following applies: cited from earlier work.
Sequence of CYP2C19 (P33261 whole entry): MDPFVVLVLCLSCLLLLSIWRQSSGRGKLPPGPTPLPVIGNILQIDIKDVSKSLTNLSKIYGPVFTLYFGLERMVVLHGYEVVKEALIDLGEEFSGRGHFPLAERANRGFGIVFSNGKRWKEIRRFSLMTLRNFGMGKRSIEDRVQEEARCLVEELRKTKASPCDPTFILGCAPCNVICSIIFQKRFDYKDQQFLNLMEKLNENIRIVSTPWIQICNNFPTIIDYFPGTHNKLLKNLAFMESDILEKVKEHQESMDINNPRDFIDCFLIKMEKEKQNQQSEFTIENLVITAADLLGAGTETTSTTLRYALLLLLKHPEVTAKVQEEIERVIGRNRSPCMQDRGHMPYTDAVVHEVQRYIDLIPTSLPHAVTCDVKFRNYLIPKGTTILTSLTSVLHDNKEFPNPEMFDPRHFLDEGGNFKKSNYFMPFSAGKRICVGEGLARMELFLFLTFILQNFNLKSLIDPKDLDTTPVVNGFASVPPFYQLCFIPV
Series [10] has as its target CYP2C9 (Homo sapiens, UniProt P11712). The settings on record: cited from earlier work.
For series [11], the target named is human SIRT2 (Homo sapiens, UniProt Q8IXJ6). The following applies: read-out: IC50, inhibition of human SIRT2; cited from earlier work.
Sequence of human SIRT2 (Q8IXJ6 whole entry): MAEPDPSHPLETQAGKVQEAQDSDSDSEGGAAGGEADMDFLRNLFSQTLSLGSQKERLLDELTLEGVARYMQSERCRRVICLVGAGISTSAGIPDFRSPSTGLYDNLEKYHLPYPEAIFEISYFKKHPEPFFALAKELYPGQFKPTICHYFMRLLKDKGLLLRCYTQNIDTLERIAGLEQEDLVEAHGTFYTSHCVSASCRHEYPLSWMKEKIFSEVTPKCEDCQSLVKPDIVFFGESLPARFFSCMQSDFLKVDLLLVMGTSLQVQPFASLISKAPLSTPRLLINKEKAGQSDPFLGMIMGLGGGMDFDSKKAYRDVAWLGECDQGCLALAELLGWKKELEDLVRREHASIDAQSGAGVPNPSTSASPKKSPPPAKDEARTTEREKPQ
Series [12] has as its target human SIRT1 (Homo sapiens, UniProt Q96EB6). The following applies: read-out: IC50, inhibition of human SIRT1; cited from earlier work.
The target of series [13] is fibroblast growth factor receptor 1 (FGFR1) (Homo sapiens, UniProt P11362). The settings on record: cited from earlier work.
Series [14] addresses FGFR2 (Homo sapiens, UniProt P21802). The following applies: cited from earlier work.
Series [15] has as its system SV-129 mice. The following applies: 450 mg/kg during a 15-minute period, after chronic simvastatin 2 mg/kg s.c. daily for 14 days; cited from earlier work.
Series [16] addresses N-methyl-D-aspartate receptors (NMDARs) (Homo sapiens, UniProt Q05586). The following applies: read-out: KB, competitive antagonist for the glycine-binding site of NMDARs; cited from earlier work.
For series [17] the following is noted: 510 mg/day, patients, cited from earlier work.
In series [18] the test system is S. aureus. The following applies: cited from earlier work.
Series [19] concerns most molds. The following applies: for most molds; cited from earlier work.
The conditions of series [20]: static toxicity tests; cited from earlier work.
Series [21] concerns vesicular stomatitis virus (VSV). The following applies: cited from earlier work.
Series [22] relates to HSV-1. The settings on record: cited from earlier work.
Series [23] has as its system poliovirus. The settings on record: cited from earlier work.
Series [24] deals with T1, Yeast-made GLUT1 (Rattus norvegicus, UniProt P11167).
T1 construct: host or cells: yeast
The following applies: cited from earlier work.

Series [25] concerns the target T2, Human erythrocyte GLUT1 (Homo sapiens, UniProt P11166).
T2 construct: Human erythrocyte GLUT1; from tissue; host or cells: human erythrocytes
The following applies: cited from earlier work.

Series [26] concerns fever induced by lipopolysaccharide (LPS). The following applies: 50 or 100 mg/kg, i.p., 0 and 2 h, rats; cited from earlier work.
In series [27] the test system is carrageenan-induced edema and nociception. The settings on record: 25, 50 or 100 mg/kg, i.p., immediately and 2 h after injection of carrageenan; cited from earlier work.
Series [28] deals with COX-2 (Homo sapiens, UniProt P35354). The settings on record: read-out: IC50, inhibition of COX-2 activity; cited from earlier work.
Sequence of COX-2 (P35354 18-604): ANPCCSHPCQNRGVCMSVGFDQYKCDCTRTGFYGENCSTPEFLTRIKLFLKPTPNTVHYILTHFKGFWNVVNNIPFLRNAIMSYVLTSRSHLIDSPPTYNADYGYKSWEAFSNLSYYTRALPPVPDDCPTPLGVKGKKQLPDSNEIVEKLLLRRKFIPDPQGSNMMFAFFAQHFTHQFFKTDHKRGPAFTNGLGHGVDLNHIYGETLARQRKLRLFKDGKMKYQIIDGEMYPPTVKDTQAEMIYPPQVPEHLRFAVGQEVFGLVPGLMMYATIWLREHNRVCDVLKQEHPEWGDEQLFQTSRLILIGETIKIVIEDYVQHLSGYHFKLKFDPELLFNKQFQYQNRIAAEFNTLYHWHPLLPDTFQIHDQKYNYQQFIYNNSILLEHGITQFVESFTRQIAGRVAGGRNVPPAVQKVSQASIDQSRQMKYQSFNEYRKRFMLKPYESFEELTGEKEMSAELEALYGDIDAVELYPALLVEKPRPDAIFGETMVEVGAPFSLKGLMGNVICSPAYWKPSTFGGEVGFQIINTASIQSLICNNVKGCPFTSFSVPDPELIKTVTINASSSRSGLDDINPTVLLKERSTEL
The target of series [29] is TRPM8 (Homo sapiens, UniProt Q7Z2W7). The following applies: read-out: EC50, agonist of TRPM8; cited from earlier work.
Series [30] addresses hERG channel (Homo sapiens, UniProt Q12809). The following applies: read-out: IC50, hERG channel blocker; cited from earlier work. On the technique in general: Block of hERG is tested as a sign of cardiac risk.
For series [31], the system named is fibroblasts, peripheral blood mononuclear cells (PBMCs), myoblasts. Kind of series: Reversal of aging (reducing predicted age) in cultured young/old cells contacted with disulfiram plus potentiating ingredients. The following applies: concentrations 0.000005 to 80 μM; potentiating ingredient up to 25 μM.
For series [32], the system named is THP1 HMGB1 Lucia cells. Kind of series: Pyroptosis inhibition luciferase assay (LPS + nigericin, HMGB1 luciferase reporter, QUANTI-Luc). The settings on record: 1 μg/ml LPS 3 h, then 10 μM nigericin 3 h. (A reporter such as luciferase makes a cellular process visible.)
The test system of series [33] is periodontopathic and cariogenic bacteria. The following applies: cited from earlier work.
The target of series [34] is β-glucosidase. The settings on record: cited from earlier work.

The term IC50 denotes the concentration that inhibits the measured activity by half. What is called Ki is a measure of affinity in units of concentration, obtained from inhibition or displacement. The term Kb denotes the equilibrium dissociation constant of an antagonist, usually derived from a functional assay. For orientation: EC50 means the concentration needed to bring the measured effect to its halfway point.

T2 sequence (P11166 whole entry): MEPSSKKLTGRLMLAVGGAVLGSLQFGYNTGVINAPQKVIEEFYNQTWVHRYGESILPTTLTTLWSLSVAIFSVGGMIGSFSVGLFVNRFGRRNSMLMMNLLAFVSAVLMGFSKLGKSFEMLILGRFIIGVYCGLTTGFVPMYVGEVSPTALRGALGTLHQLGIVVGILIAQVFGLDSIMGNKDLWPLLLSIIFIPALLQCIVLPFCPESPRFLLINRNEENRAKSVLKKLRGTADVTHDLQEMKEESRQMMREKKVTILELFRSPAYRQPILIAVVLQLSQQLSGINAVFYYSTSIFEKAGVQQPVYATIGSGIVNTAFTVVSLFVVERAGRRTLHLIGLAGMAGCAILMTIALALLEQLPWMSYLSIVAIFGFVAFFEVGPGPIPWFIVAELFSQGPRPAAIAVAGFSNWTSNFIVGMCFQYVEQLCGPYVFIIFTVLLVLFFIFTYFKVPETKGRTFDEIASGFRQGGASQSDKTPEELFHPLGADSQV
Sequence of human SIRT1 (Q96EB6 whole entry): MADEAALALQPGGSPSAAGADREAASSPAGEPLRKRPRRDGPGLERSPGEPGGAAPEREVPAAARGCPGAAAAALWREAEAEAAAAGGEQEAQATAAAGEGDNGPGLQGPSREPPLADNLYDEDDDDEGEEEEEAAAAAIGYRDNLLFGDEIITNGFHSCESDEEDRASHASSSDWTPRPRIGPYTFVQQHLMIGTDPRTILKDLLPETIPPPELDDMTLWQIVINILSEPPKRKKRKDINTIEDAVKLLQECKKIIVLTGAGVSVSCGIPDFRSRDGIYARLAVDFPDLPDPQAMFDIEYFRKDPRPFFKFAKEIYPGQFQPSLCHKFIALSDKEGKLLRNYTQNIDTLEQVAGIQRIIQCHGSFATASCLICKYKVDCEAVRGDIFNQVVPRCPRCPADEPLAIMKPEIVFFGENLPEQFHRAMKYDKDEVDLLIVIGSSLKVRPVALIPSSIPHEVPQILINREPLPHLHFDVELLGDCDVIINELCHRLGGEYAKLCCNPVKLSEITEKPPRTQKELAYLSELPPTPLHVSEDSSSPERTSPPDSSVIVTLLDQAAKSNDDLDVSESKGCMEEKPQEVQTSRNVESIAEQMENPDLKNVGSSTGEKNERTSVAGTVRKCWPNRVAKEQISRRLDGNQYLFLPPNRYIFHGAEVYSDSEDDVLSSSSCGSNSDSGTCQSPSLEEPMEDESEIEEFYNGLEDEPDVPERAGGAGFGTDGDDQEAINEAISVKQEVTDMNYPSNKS
Sequence of FGFR2 (P21802 22-821, species assumed): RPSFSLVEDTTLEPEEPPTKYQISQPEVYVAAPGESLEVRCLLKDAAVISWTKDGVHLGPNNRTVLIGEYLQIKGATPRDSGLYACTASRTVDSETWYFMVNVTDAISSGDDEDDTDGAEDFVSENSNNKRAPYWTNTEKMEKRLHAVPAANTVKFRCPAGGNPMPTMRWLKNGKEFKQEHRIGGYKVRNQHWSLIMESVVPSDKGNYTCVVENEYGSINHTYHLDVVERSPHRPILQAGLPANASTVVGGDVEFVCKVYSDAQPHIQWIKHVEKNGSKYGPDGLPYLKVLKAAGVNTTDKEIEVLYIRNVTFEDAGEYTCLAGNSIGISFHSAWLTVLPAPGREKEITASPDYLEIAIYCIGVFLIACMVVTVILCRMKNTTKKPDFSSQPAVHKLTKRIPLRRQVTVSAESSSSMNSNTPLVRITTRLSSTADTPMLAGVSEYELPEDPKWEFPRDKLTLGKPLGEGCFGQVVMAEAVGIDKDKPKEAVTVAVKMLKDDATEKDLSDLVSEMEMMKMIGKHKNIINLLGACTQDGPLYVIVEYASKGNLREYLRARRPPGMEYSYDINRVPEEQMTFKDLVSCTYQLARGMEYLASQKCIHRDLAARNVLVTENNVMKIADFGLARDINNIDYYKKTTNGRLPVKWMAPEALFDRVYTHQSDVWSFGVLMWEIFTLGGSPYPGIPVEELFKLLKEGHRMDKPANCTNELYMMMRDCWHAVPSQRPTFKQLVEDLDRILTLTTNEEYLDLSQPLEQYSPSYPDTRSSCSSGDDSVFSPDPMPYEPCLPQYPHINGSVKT
Sequence of CYP2C9 (P11712 whole entry): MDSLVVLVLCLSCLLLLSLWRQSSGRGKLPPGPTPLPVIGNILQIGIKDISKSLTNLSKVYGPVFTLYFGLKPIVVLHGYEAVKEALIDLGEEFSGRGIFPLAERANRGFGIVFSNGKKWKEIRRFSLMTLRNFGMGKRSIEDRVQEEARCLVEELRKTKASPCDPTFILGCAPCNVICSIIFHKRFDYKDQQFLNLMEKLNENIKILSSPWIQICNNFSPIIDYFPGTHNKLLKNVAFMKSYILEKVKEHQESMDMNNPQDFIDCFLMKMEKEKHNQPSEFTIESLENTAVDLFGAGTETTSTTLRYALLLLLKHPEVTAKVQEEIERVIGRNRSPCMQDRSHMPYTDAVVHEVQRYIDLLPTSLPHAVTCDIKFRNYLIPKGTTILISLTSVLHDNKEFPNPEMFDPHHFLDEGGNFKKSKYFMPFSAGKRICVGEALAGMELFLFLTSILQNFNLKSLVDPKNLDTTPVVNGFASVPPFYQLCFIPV
Sequence of CYP2B6 (P20813 whole entry): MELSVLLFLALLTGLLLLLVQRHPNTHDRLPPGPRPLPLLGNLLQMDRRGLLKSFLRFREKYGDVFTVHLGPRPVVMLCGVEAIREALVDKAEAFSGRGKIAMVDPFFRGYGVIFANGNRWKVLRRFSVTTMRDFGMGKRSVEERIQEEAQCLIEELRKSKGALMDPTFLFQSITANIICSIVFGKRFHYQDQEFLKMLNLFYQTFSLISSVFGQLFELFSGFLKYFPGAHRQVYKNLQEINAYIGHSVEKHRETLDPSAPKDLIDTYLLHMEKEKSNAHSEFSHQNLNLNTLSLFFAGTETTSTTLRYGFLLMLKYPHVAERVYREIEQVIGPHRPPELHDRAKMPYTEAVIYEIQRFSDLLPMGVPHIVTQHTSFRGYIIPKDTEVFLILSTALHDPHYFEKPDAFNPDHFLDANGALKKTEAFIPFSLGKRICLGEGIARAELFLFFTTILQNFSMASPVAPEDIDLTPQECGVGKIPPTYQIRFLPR

In the case of `CCCCCCCCO` [1-Octanol], the IC50 in series [1] is 4 µM.

Take `O=C(O)CCC(=O)C(=O)O` [2-Ketoglutaric acid]: the IC50 in series [2] is 15000 µM. Regarding `CCCC=C1OC(=O)c2ccccc21` [3-Butylidenephthalide], in series [3], the LC50 larvicidal activity entry is “activity (LC50 of 1.56 mg/g for Spodoptera”. On to `O=C(O)c1ccc(O)cc1` [4-Hydroxybenzoic acid], for which the “IC50, inhibition of most gram-positive and some gram-negative bacteria” value in series [4] is reported as “of 160 μg/mL”. In the case of `CCCCC1OC(=O)c2ccccc21` (stereo not shown) [Butylphthalide], in series [5], the “loss of choline acetyltransferase (ChAT)-positive neurons in the medial septal nucleus and vertical limb of the diagonal band” value is reported as “diagonal band in SAMP8 mice was slowed down,”; the “spatial learning and memory ability” value was 2 months significantly improved spatial learning a. On to `C[C@@H]1CC[C@H]2C(C)(C)[C@H]3C[C@@]12CC[C@@]3(C)O` [Cedrol], for which the Ki in [6] is 0.9 µM; in series [8] it was 3.4 µM. For the same compound, the “inhibitory effect on CYP2C8” value in series [7] is “has weak inhibitory effect on CYP2C8,”. Also, the “inhibitory effect on CYP2C19” value in [9] is on record as “has weak inhibitory effect on CYP2C8,”. In series [10], the “inhibitory effect on CYP2C9” value is “has weak inhibitory effect on CYP2C8,”.

On to `O=C1CCc2ccccc2O1` [Dihydrocoumarin], for which the IC50 is 295 µM in [11] and 208 µM in series [12]. On to `COc1cc(/C=C/C(=O)O)ccc1O` [Ferulic acid (sodium)], for which the IC50 in series [13] was 3.78 µM; in series [14], 12.5 µM. With `N=C(N)NCCC[C@H](N)C(=O)O` [L-Arginine], in series [15], the “hyperemia amplified and sustained” value is “hyperemia (38%) and increases absolute brain”. As to `N[C@@H](Cc1ccccc1)C(=O)O` [L-Phenylalanine], the antagonist equilibrium constant (Kb) in series [16] is 573 µM. In the case of `C[N+](C)(C)C[C@H](O)CC(=O)[O-]` [L-carnitine], the “total time for dozing off during the daytime, calculated from the sleep logs” value in series [17] (compared with placebo-treated periods) was “improved the total time for dozing off during the”. Also, in series [17], the serum acylcarnitine levels entry is given as “(Levocarnitine) efficiently increased serum acyl-”; the serum triglycerides concentration entry was “carnitine levels, and reduced serum triglycerides”.

Consider `CCCCCCCCCCCC(=O)O` [Lauric acid], for which the “EC50 for S. aureus” value in series [18] is 6 µg/mL.

For `C[C@@H]1C/C=C/C=C/C=C/C=C/[C@H](O[C@@H]2O[C@H](C)[C@@H](O)[C@H](N)[C@@H]2O)C[C@@H]2O[C@](O)(C[C@@H](O)C[C@H]3O[C@@H]3/C=C/C(=O)O1)C[C@H](O)[C@H]2C(=O)O` [Natamycin], the “MIC (minimum inhibitory concentration)” value in [19] is on record as “concentration) of less than 10 ppm for most molds”.

Consider `CCCCCCCCC(=O)NCc1ccc(O)c(OC)c1` [Nonivamide], for which the 4d-EC50 result in series [20] was “exhibits 4d-EC50 value of 5.1 mg/L in static”. As to `CCCCCCCCOC(=O)c1cc(O)c(O)c(O)c1` [Octyl gallate], the “antiviral effect against vesicular stomatitis virus (VSV)” value in [21] is “Octyl gallate shows a marked antiviral effect”. Besides, in series [22], the “antiviral effect against HSV-1” value was “Octyl gallate shows a marked antiviral effect”. The “antiviral effect against poliovirus” value in series [23] was “Octyl gallate shows a marked antiviral effect”. Regarding `O=C(CCc1ccc(O)cc1)c1c(O)cc(O)cc1O` [Phloretin], the half-inhibitory concentration (IC50) in [24] is 49 µM; in series [25], 61 µM. As to `Cc1cc2nc3c(=O)[nH]c(=O)nc-3n(C[C@H](O)[C@H](O)[C@H](O)CO)c2cc1C` [Riboflavin], the “fever induced by lipopolysaccharide (LPS)” value in series [26] is 2 h) also inhibited the fever induced by lipopoly-. The antinociceptive effect entry in [27] is on record as “antinociceptive effects. The antinociceptive effect”.

For the compound `COc1cc(C=O)cc(OC)c1O` [Syringaldehyde], the IC50 in series [28] was 19.2 µM. On to `CCNC(=O)C1CC(C)CCC1C(C)C` (stereo not shown) [TRPM8 antagonist WS-3], for which, in series [29], the EC50 is 3.7 µM. As for `O=C(OC[C@H]1O[C@@H](OC(=O)c2cc(O)c(O)c(OC(=O)c3cc(O)c(O)c(O)c3)c2)[C@H](OC(=O)c2cc(O)c(O)c(OC(=O)c3cc(O)c(O)c(O)c3)c2)[C@@H](OC(=O)c2cc(O)c(O)c(OC(=O)c3cc(O)c(O)c(O)c3)c2)[C@@H]1OC(=O)c1cc(O)c(O)c(OC(=O)c2cc(O)c(O)c(O)c2)c1)c1cc(O)c(O)c(OC(=O)c2cc(O)c(O)c(O)c2)c1` [Tannic acid], in series [30], the half-inhibitory concentration (IC50) is 3.4 µM.

For `O=C/C=C/c1ccccc1` [cinnamaldehyde, (2E)-3-Phenyl-2-propenal], the “ability to potentiate disulfiram in reversing aging of cells” value in series [31] is recorded as “identified as a potentiating ingredient”. Moreover, the “inhibition of pyroptosis (HMGB1 luciferase reporter in supernatant)” value in series [32] is “no effect”.

Take `CC1=CCC(C(C)(C)O)CC1` (stereo not drawn) [α-Terpineol]: the “antimicrobial activity against periodontopathic and cariogenic bacteria” value in [33] is “Labill, exhibits strong antimicrobial activity”. In the case of Rebaudioside A, in series [34], the “IC 50 (Target: β-glucosidase)” value was “IC 50: 35.01 ug/mL”.
